Results taken from patent publication US11753418B2, “Compounds for the modulation of Myc activity” (Syros Pharmaceuticals, Inc., priority 2015, dated 2023).
Where a name gives a salt, the structure may show the parent alone.

How the values were obtained:
c-Myc/Max/Ebox DNA = target: T1, c-Myc/Max/Ebox DNA (Homo sapiens, UniProt P01106); assay: c-Myc/Max/Ebox DNA AlphaScreen Assay; type: binding; settings: free c-Myc 20 nM, his6-Max 5 nM, biotinylated Ebox oligo 10 nM, 2 hour incubation
T1 construct: his6 (cleaved yes)
Procedure: Compounds of the invention were assayed for c-Myc/Max/EBox activity as described in the following protocol. Human his6-c-Myc and his6-Max were used with biotinylated DNA containing a single Ebox sequence (biotin[…]) purchased from MWG Operon. Free c-Myc was generated from his6-c-Myc through thrombin cleavage of the his6 tag. For 384-well plate assays, 10 μL of a 2× solution of free c-Myc (20 nM final), Ni^2+ coated Acceptor Beads (25 μg/ml final), and biotinylated Ebox oligo (10 nM final) were added to 384-well plates with a Biotek EL406 liquid handler. 50 nL of compounds from stock plates were added by pin transfer using a Janus Workstation (PerkinElmer), allowing the compounds to interact with c-Myc prior to c-Myc binding with Max. In the current assay, DMSO was not allowed to exceed 2% v/v of the assay. 10 μl of 2× master mix containing streptavidin-coated donor beads (25 μg/ml final) and his6-Max (5 nM) were added. AlphaScreen measurements were performed on an Envision plate reader (PerkinElmer) utilizing the manufacturer's protocol.
Both master mixes were made in room temperature assay buffer (50 mM HEPES, 150 mM NaCl, 0.2% w/v BSA, 0.02% w/v Tween20, 40 μg/ml glycogen, 500 μM DTT, pH 8.0, wherein both DTT and glycogen were added fresh). Alpha beads were added to respective master solutions. All subsequent steps were performed in low light conditions. Solution 1: 2× solution of components with final concentrations of c-Myc Ni-coated Acceptor Beads (25 μg/ml), and biotinylated Ebox oligo (10 nM). Solution 2: 2× solution of streptavidin-coated donor beads (25 μg/ml final) and his6-Max […]. Solution 1 was added to 384-well plate (AlphaPlate-384, PerkinElmer) with Biotek EL406 liquid handler and the plates were centrifuged very briefly. 50 nL of compounds from stock plates were added by pin transfer using a Janus Workstation. Solution 2 (10 μL) was added with the liquid handler. Plates were sealed with foil to block light exposure and prevent evaporation. Plates were very briefly centrifuged followed by 2 hour incubation. AlphaScreen measurements were performed on an Envision 2104 utilizing the manufacturer's protocol. Excitation was at 680 nm for donor bead release of singlet oxygen and emission was read with a bandpass filter from 520-620 nm. Glycogen: Roche Diagnostics #10901393001. Plate 1536: Perkin Elmer, 6004350. Plate 384: Perkin Elmer, 6005350. Nickel-His Alpha Beads: 6760619R. The data from this assay are summarized in Table 3 below (Myc/Max/DNA Activity).

[1] = test system: human small lung cancer cell line H2171; assay: Cell Viability Assay (ATPlite); type: cell-based; settings: NCI-H2171, 72 h, H2171 cells, incubated for three days, ATPlite readout
Procedure: Compounds of the invention were assayed for cell viability using the human small lung cancer cell line H2171 as described in the following protocol. Cells were counted and adjusted to 20,000 cells/mL. Using a Biotek EL406, 50 μL of cells in media were distributed into 384 well white plates from Thermo. Immediately after plating, compound in DMSO was distributed to plates. Compounds were added to plates using a 50 nL 384 well pin transfer manifold on a Janus workstation. Stocks were arrayed in 10 point dose response in DMSO stock in 384 well Greiner compound plates. After the addition of compounds, plates were incubated for three days in a 37° C. incubator. Cell viability was read out using ATPlite from Perkin Elmer. Lyophilized powder was resuspended in lysis buffer and diluted 1:2 with deionized water. 25 μL of this solution was added to each well using the Biotek liquid handler. Plates were incubated for 15 minutes at room temperature before signal was read on an Envision Plate Reader. The data from this assay are summarized in Table 3 below (H2171 activity).

T1 sequence (P01106 whole entry): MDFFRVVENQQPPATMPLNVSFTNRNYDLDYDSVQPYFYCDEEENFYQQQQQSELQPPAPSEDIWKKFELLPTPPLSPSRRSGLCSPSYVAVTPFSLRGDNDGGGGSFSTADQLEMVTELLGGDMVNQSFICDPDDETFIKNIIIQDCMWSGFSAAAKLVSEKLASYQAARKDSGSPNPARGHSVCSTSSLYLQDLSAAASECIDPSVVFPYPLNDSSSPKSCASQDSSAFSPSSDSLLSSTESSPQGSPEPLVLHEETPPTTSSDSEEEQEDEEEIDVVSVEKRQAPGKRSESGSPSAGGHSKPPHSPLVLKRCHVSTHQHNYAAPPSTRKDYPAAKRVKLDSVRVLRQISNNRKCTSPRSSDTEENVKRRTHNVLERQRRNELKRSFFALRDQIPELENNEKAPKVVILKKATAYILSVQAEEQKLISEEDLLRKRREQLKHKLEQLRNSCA

Structure (SMILES)	IC50 (c-Myc/Max/Ebox DNA)	IC50 [1]
CC(=O)Nc1sc2c(c1-c1nc3cnccc3s1)CCN(C(C)CN1CCOCC1)C2 (centres unmarked) [Compound 105, N-(6-(1-morpholinopropan-2-yl)-3-(thiazolo[4,5-c]pyridin-2-yl)-4,5,6,7-tetrahydrothieno[2,3-c]pyridin-2-yl)acetamide]	500 to 5000 nM	500 to 5000 nM
CC(=O)Nc1sc2c(c1-c1nc3cnccc3s1)C[C@@H](C)N[C@@H]2C (single isomer, unassigned) [Compound 110]	< 500 nM	< 500 nM
CC(=O)Nc1sc2c(c1-c1nc3c[n+]([O-])ccc3s1)CCNC2 [Compound 108, 2-(2-acetamido-4,5,6,7-tetrahydrothieno[2,3-c]pyridin-3-yl)thiazolo[4,5-c]pyridine 5-oxide]	500 to 5000 nM	500 to 5000 nM
CN(CCCn1ccnc1)CCC(=O)Nc1sc2c(c1-c1nc3cnccc3s1)CCNC2 [Compound 190]	< 500 nM	< 500 nM
CC(=O)Nc1sc2c(c1-c1nc3cnccc3s1)CCN(C)C2 [Compound 114, N-(6-methyl-3-(thiazolo[4,5-c]pyridin-2-yl)-4,5,6,7-tetrahydrothieno[2,3-c]pyridin-2-yl)acetamide]	500 to 5000 nM	500 to 5000 nM
CCN1C(C)Cc2c(sc(NC(C)=O)c2-c2nc3cnccc3s2)C1C (centres unmarked) [Compound 117, N-(6-ethyl-5,7-dimethyl-3-(thiazolo[4,5-c]pyridin-2-yl)-4,5,6,7-tetrahydrothieno[2,3-c]pyridin-2-yl)acetamide]	500 to 5000 nM	500 to 5000 nM
O=C(CCN1CC(C(=O)O)C1)Nc1sc2c(c1-c1nc3cnccc3s1)CCNC2 [Compound 172]	< 500 nM	< 500 nM
O=C(CCN[C@H]1CC[C@]2(CCC(=O)N2)CC1)Nc1sc2c(c1-c1nc3cnccc3s1)CCNC2 [Compound 177]	< 500 nM	< 500 nM
CC(=O)Nc1sc2c(c1-c1nc3cnccc3s1)C(C)CN(C(C)C)C2 (centres unmarked) [Compound 107, N-(6-isopropyl-4-methyl-3-(thiazolo[4,5-c]pyridin-2-yl)-4,5,6,7-tetrahydrothieno[2,3-c]pyridin-2-yl)acetamide]	500 to 5000 nM	500 to 5000 nM
O=C(CCN1CCCCC12CNC2)Nc1sc2c(c1-c1nc3cnccc3s1)CCNC2 [Compound 183]	500 to 5000 nM	< 500 nM
CC(=O)Nc1sc2c(c1-c1nc3cnccc3s1)C[C@H](C)N[C@H]2C (single isomer, unassigned) [Compound 111]	< 500 nM	< 500 nM
CC[C@H](C)NCCC(=O)Nc1sc2c(c1-c1nc3cnccc3s1)CCNC2 [Compound 122, (S)-3-(sec-butylamino)-N-(3-(thiazolo[4,5-c]pyridin-2-yl)-4,5,6,7-tetrahydrothieno[2,3-c]pyridin-2-yl)propanamide]	< 500 nM	< 500 nM
COCC(NCCC(=O)Nc1sc2c(c1-c1nc3cnccc3s1)CCNC2)C(C)C (centres unmarked) [Compound 134]	< 500 nM	500 to 5000 nM

The next lines start with the values.

IC50 (c-Myc/Max/Ebox DNA)	IC50 [1]	Structure (SMILES)
< 500 nM	< 500 nM	O=C(CCNCCc1cccnc1)Nc1sc2c(c1-c1nc3cnccc3s1)CCNC2 [Compound 218, 3-((2-(pyridin-3-yl)ethyl)amino)-N-(3-(thiazolo[4,5-c]pyridin-2-yl)-4,5,6,7-tetrahydrothieno[2,3-c]pyridin-2-yl)propanamide]
< 500 nM	< 500 nM	CC(C)NCCC(=O)Nc1sc2c(c1-c1nc3ncccc3s1)CCNC2 [Compound 220, 3-(isopropylamino)-N-(3-(thiazolo[4,5-b]pyridin-2-yl)-4,5,6,7-tetrahydrothieno[2,3-c]pyridin-2-yl)propanamide dihydrochloride]
500 to 5000 nM	< 500 nM	C[C@@H]1NCCc2c1sc(NC(=O)CCN[C@@H]1C[C@H]3CNC[C@H]3C1)c2-c1nc2cnccc2s1 [Compound 246, N—((S)-7-methyl-3-(thiazolo[4,5-c]pyridin-2-yl)-4,5,6,7-tetrahydrothieno[2,3-c]pyridin-2-yl)-3-(((3aR,5s,6aS)-octahydrocyclopenta[c]pyrrol-5-yl)amino)propanamide]
< 500 nM	< 500 nM	CC[C@@H](C)NCCC(=O)Nc1sc2c(c1-c1nc3cnccc3s1)CCNC2 [Compound 217, (R)-3-(sec-butylamino)-N-(3-(thiazolo[4,5-c]pyridin-2-yl)-4,5,6,7-tetrahydrothieno[2,3-c]pyridin-2-yl)propanamide]
< 500 nM	< 500 nM	CCN1CCc2c(sc(NC(C)=O)c2-c2nc3cnccc3s2)[C@@H]1C [Compound 232, (S)—N-(6-ethyl-7-methyl-3-(thiazolo[4,5-c]pyridin-2-yl)-4,5,6,7-tetrahydrothieno[2,3-c]pyridin-2-yl)acetamide]
< 500 nM	< 500 nM	C[15NH]CCC(=O)Nc1sc2c(c1-c1nc3cnccc3s1)CCNC2 [Compound 248, 3-(Methylamino)-N-(3-(thiazolo[4,5-c]pyridin-2-yl)-4,5,6,7-tetrahydrothieno[2,3-c]pyridin-2-yl)propanamide]
< 500 nM	< 500 nM	CC(=O)Nc1sc2c(c1-c1nc3c(C)nc(C)cc3s1)CCNC2 [Compound 228, N-(3-(4,6-dimethylthiazolo[4,5-c]pyridin-2-yl)-4,5,6,7-tetrahydrothieno[2,3-c]pyridin-2-yl)acetamide hydrochloride]
< 500 nM	< 500 nM	COCCNCCC(=O)Nc1sc2c(c1-c1nc3cnc(Cl)cc3s1)CCNC2 [Compound 243]
500 to 5000 nM	< 500 nM	C[C@@H]1Cc2c(sc(NC(=O)CCN[C@@H]3C[C@H]4CNC[C@H]4C3)c2-c2nc3cnccc3s2)CN1 [Compound 250, N—((R)-5-methyl-3-(thiazolo[4,5-c]pyridin-2-yl)-4,5,6,7-tetrahydrothieno[2,3-c]pyridin-2-yl)-3-(((3aR,5s,6aS)-octahydrocyclopenta[c]pyrrol-5-yl)amino)propanamide]
< 500 nM	< 500 nM	C[C@H]1NCCc2c1sc(NC(=O)CCN[C@@H]1C[C@H]3CNC[C@H]3C1)c2-c1nc2cnccc2s1 [Compound 249, N—((R)-7-methyl-3-(thiazolo[4,5-c]pyridin-2-yl)-4,5,6,7-tetrahydrothieno[2,3-c]pyridin-2-yl)-3-(((3aR,5s,6aS)-octahydrocyclopenta[c]pyrrol-5-yl)amino)propanamide]
< 500 nM	< 500 nM	COCCNCCC(=O)Nc1sc2c(c1-c1nc3cnccc3s1)CCNC2 [Compound 216, 3-((2-methoxyethyl)amino)-N-(3-(thiazolo[4,5-c]pyridin-2-yl)-4,5,6,7-tetrahydrothieno[2,3-c]pyridin-2-yl)propanamide]
< 500 nM	500 to 5000 nM	CNCCC(=O)Nc1sc2c(c1-c1nc3cnccc3s1)CCNC2 [Compound 224, 3-(Methylamino)-N-(3-(thiazolo[4,5-c]pyridin-2-yl)-4,5,6,7-tetrahydrothieno[2,3-c]pyridin-2-yl)propanamide]
< 500 nM	< 500 nM	COCCNCCC(=O)Nc1sc2c(c1-c1nc3c(C)nc(C)cc3s1)CCNC2 [Compound 227, N-(3-(4,6-Dimethylthiazolo[4,5-c]pyridin-2-yl)-4,5,6,7-tetrahydrothieno[2,3-c]pyridin-2-yl)-3-((2-methoxyethyl)amino)propanamide dihydrochloride]
< 500 nM	< 500 nM	COCCNCCC(=O)Nc1sc2c(c1-c1nc3c(C(F)F)nc(C)cc3s1)CCNC2 [Compound 245]
< 500 nM	< 500 nM	CC[C@H](C)NCCC(=O)Nc1sc2c(c1-c1nc3cnccc3s1)CCN[C@H]2C [Compound 234, 3-(((S)-sec-butyl)amino)-N—((S)-7-methyl-3-(thiazolo[4,5-c]pyridin-2-yl)-4,5,6,7-tetrahydrothieno[2,3-c]pyridin-2-yl)propanamide]
